# Assay results reported in patent US20230157952A1, “METHOD FOR IMPROVING THE STABILITY OF A PHARMACEUTICAL COMPOSITION COMPRISING A HIGH PENETRATION DRUG, AND THE PHARMACEUTICAL COMPOSITION OBTAINED THEREFROM” (Techfields Inc., priority 2020, published 2023).
# Assay: Effect of temperature (and pH) on the stability of the solution (purity)
# Format: physicochemical
# Details: 7% solution in water
structure (smiles),measurement,setting,value
CCN(CC)CCOC(=O)C(C)c1ccc2oc(-c3ccc(Cl)cc3)nc2c1.Cl (centres unmarked),Purity(%) at day 0,"pH 1.0, day 0",98.1 ± 0.3%
same,Purity(%) at day 21 (5° C.),"pH 1.0, day 21, 5° C.",92.9 ± 0.3%
same,Purity(%) at day 21 (25° C.),"pH 1.0, day 21, 25° C.",69.2 ± 0.3%
same,Purity(%) at day 21 (40° C.),"pH 1.0, day 21, 40° C.",11.3 ± 0.3%
same,Purity (%) at day 21 (60° C.),"pH 1.0, day 21, 60° C.",0%
same,Purity(%) at day 0,"pH 2.0, day 0",98.2 ± 0.3%
same,Purity(%) at day 21 (5° C.),"pH 2.0, day 21, 5° C.",96.1 ± 0.3%
same,Purity(%) at day 21 (25° C.),"pH 2.0, day 21, 25° C.",83.0 ± 0.3%
same,Purity(%) at day 21 (40° C.),"pH 2.0, day 21, 40° C.",20.5 ± 0.3%
same,Purity (%) at day 21 (60° C.),"pH 2.0, day 21, 60° C.",0%
same,Purity(%) at day 0,"pH 3.0, day 0",98.3 ± 0.2%
same,Purity(%) at day 21 (5° C.),"pH 3.0, day 21, 5° C.",97.5 ± 0.2%
same,Purity(%) at day 21 (25° C.),"pH 3.0, day 21, 25° C.",94.0 ± 0.3%
same,Purity(%) at day 21 (40° C.),"pH 3.0, day 21, 40° C.",45.3 ± 0.2%
same,Purity (%) at day 21 (60° C.),"pH 3.0, day 21, 60° C.",0%
same,Purity(%) at day 0,"pH 3.7, day 0",98.5 ± 0.1%
same,Purity(%) at day 21 (5° C.),"pH 3.7, day 21, 5° C.",97.6 ± 0.2%
same,Purity(%) at day 21 (25° C.),"pH 3.7, day 21, 25° C.",96.6 ± 0.2%
same,Purity(%) at day 21 (40° C.),"pH 3.7, day 21, 40° C.",51.9 ± 0.2%
same,Purity (%) at day 21 (60° C.),"pH 3.7, day 21, 60° C.",11.3 ± 0.3%
same,Purity(%) at day 0,"pH 4.0, day 0",98.6 ± 0.1%
same,Purity(%) at day 21 (5° C.),"pH 4.0, day 21, 5° C.",98.0 ± 0.1%
same,Purity(%) at day 21 (25° C.),"pH 4.0, day 21, 25° C.",96.7 ± 0.2%
same,Purity(%) at day 21 (40° C.),"pH 4.0, day 21, 40° C.",62.7 ± 0.2%
same,Purity (%) at day 21 (60° C.),"pH 4.0, day 21, 60° C.",18.6 ± 0.2%
same,Purity(%) at day 0,"pH 4.3, day 0",98.6 ± 0.1%
same,Purity(%) at day 21 (5° C.),"pH 4.3, day 21, 5° C.",98.0 ± 0.1%
same,Purity(%) at day 21 (25° C.),"pH 4.3, day 21, 25° C.",96.7 ± 0.1%
same,Purity(%) at day 21 (40° C.),"pH 4.3, day 21, 40° C.",63.1 ± 0.2%
same,Purity (%) at day 21 (60° C.),"pH 4.3, day 21, 60° C.",17.7 ± 0.2%
same,Purity(%) at day 0,"pH 4.6, day 0",98.6 ± 0.1%
same,Purity(%) at day 21 (5° C.),"pH 4.6, day 21, 5° C.",98.0 ± 0.1%
same,Purity(%) at day 21 (25° C.),"pH 4.6, day 21, 25° C.",96.6 ± 0.1%
same,Purity(%) at day 21 (40° C.),"pH 4.6, day 21, 40° C.",50.3 ± 0.2%
same,Purity (%) at day 21 (60° C.),"pH 4.6, day 21, 60° C.",12.3 ± 0.2%
same,Purity(%) at day 0,"pH 5.0, day 0",98.4 ± 0.2%
same,Purity(%) at day 21 (5° C.),"pH 5.0, day 21, 5° C.",97.1 ± 0.2%
same,Purity(%) at day 21 (25° C.),"pH 5.0, day 21, 25° C.",92.9 ± 0.2%
same,Purity(%) at day 21 (40° C.),"pH 5.0, day 21, 40° C.",39.8 ± 0.2%
same,Purity (%) at day 21 (60° C.),"pH 5.0, day 21, 60° C.",2.9 ± 0.2%
same,Purity(%) at day 0,"pH 6.0, day 0",98.2 ± 0.2%
same,Purity(%) at day 21 (5° C.),"pH 6.0, day 21, 5° C.",94.8 ± 0.2%
same,Purity(%) at day 21 (25° C.),"pH 6.0, day 21, 25° C.",86.8 ± 0.2%
same,Purity(%) at day 21 (40° C.),"pH 6.0, day 21, 40° C.",20.6 ± 0.3%
same,Purity (%) at day 21 (60° C.),"pH 6.0, day 21, 60° C.",0%
same,Purity(%) at day 0,"pH 7.0, day 0",98.0 ± 0.2%
same,Purity(%) at day 21 (5° C.),"pH 7.0, day 21, 5° C.",89.1 ± 0.3%
same,Purity(%) at day 21 (25° C.),"pH 7.0, day 21, 25° C.",60.9 ± 0.2%
same,Purity(%) at day 21 (40° C.),"pH 7.0, day 21, 40° C.",7.4 ± 0.3%
same,Purity (%) at day 21 (60° C.),"pH 7.0, day 21, 60° C.",0%
same,Purity(%) at day 0,"pH 8.0, day 0",97.7 ± 0.3%
same,Purity(%) at day 21 (5° C.),"pH 8.0, day 21, 5° C.",78.7 ± 0.3%
same,Purity(%) at day 21 (25° C.),"pH 8.0, day 21, 25° C.",47.9 ± 0.3%
same,Purity(%) at day 21 (40° C.),"pH 8.0, day 21, 40° C.",0%
same,Purity (%) at day 21 (60° C.),"pH 8.0, day 21, 60° C.",0%
CCN(CC)CCOC(=O)COc1nn(Cc2ccccc2)c2ccccc12.Cl,Purity(%) at day 0,"pH 1.0, day 0",97.5 ± 0.3%
same,Purity(%) at day 21 (5° C.),"pH 1.0, day 21, 5° C.",89.9 ± 0.3%
same,Purity(%) at day 21 (25° C.),"pH 1.0, day 21, 25° C.",63.5 ± 0.3%
same,Purity(%) at day 21 (40° C.),"pH 1.0, day 21, 40° C.",9.1 ± 0.3%
same,Purity (%) at day 21 (60° C.),"pH 1.0, day 21, 60° C.",0%
same,Purity(%) at day 0,"pH 2.0, day 0",97.7 ± 0.2%
same,Purity(%) at day 21 (5° C.),"pH 2.0, day 21, 5° C.",93.0 ± 0.2%
same,Purity(%) at day 21 (25° C.),"pH 2.0, day 21, 25° C.",77.8 ± 0.3%
same,Purity(%) at day 21 (40° C.),"pH 2.0, day 21, 40° C.",19.6 ± 0.3%
same,Purity (%) at day 21 (60° C.),"pH 2.0, day 21, 60° C.",0%
same,Purity(%) at day 0,"pH 3.0, day 0",97.8 ± 0.2%
same,Purity(%) at day 21 (5° C.),"pH 3.0, day 21, 5° C.",96.8 ± 0.2%
same,Purity(%) at day 21 (25° C.),"pH 3.0, day 21, 25° C.",91.3 ± 0.2%
same,Purity(%) at day 21 (40° C.),"pH 3.0, day 21, 40° C.",40.4 ± 0.2%
same,Purity (%) at day 21 (60° C.),"pH 3.0, day 21, 60° C.",0%
same,Purity(%) at day 0,"pH 3.7, day 0",97.9 ± 0.1%
same,Purity(%) at day 21 (5° C.),"pH 3.7, day 21, 5° C.",97.5 ± 0.1%
same,Purity(%) at day 21 (25° C.),"pH 3.7, day 21, 25° C.",95.6 ± 0.2%
same,Purity(%) at day 21 (40° C.),"pH 3.7, day 21, 40° C.",55.6 ± 0.2%
same,Purity (%) at day 21 (60° C.),"pH 3.7, day 21, 60° C.",8.5 ± 0.2%
same,Purity(%) at day 0,"pH 4.0, day 0",98.1 ± 0.1%
same,Purity(%) at day 21 (5° C.),"pH 4.0, day 21, 5° C.",97.6 ± 0.1%
same,Purity(%) at day 21 (25° C.),"pH 4.0, day 21, 25° C.",95.7 ± 0.1%
same,Purity(%) at day 21 (40° C.),"pH 4.0, day 21, 40° C.",57.2 ± 0.2%
same,Purity (%) at day 21 (60° C.),"pH 4.0, day 21, 60° C.",23.2 ± 0.2%
same,Purity(%) at day 0,"pH 4.3, day 0",98.1 ± 0.1%
same,Purity(%) at day 21 (5° C.),"pH 4.3, day 21, 5° C.",97.7 ± 0.2%
same,Purity(%) at day 21 (25° C.),"pH 4.3, day 21, 25° C.",95.5 ± 0.1%
same,Purity(%) at day 21 (40° C.),"pH 4.3, day 21, 40° C.",58.8 ± 0.3%
same,Purity (%) at day 21 (60° C.),"pH 4.3, day 21, 60° C.",25.8 ± 0.2%
same,Purity(%) at day 0,"pH 4.6, day 0",97.9 ± 0.1%
same,Purity(%) at day 21 (5° C.),"pH 4.6, day 21, 5° C.",97.6 ± 0.1%
same,Purity(%) at day 21 (25° C.),"pH 4.6, day 21, 25° C.",95.1 ± 0.1%
same,Purity(%) at day 21 (40° C.),"pH 4.6, day 21, 40° C.",54.7 ± 0.2%
same,Purity (%) at day 21 (60° C.),"pH 4.6, day 21, 60° C.",16.5 ± 0.2%
same,Purity(%) at day 0,"pH 5.0, day 0",97.8 ± 0.2%
same,Purity(%) at day 21 (5° C.),"pH 5.0, day 21, 5° C.",95.9 ± 0.2%
same,Purity(%) at day 21 (25° C.),"pH 5.0, day 21, 25° C.",91.8 ± 0.2%
same,Purity(%) at day 21 (40° C.),"pH 5.0, day 21, 40° C.",36.1 ± 0.2%
same,Purity (%) at day 21 (60° C.),"pH 5.0, day 21, 60° C.",4.2 ± 0.2%
same,Purity(%) at day 0,"pH 6.0, day 0",97.6 ± 0.3%
same,Purity(%) at day 21 (5° C.),"pH 6.0, day 21, 5° C.",93.7 ± 0.2%
same,Purity(%) at day 21 (25° C.),"pH 6.0, day 21, 25° C.",78.9 ± 0.2%
same,Purity(%) at day 21 (40° C.),"pH 6.0, day 21, 40° C.",18.5 ± 0.2%
same,Purity (%) at day 21 (60° C.),"pH 6.0, day 21, 60° C.",0%
same,Purity(%) at day 0,"pH 7.0, day 0",97.5 ± 0.3%
same,Purity(%) at day 21 (5° C.),"pH 7.0, day 21, 5° C.",89.3 ± 0.2%
same,Purity(%) at day 21 (25° C.),"pH 7.0, day 21, 25° C.",59.7 ± 0.3%
same,Purity(%) at day 21 (40° C.),"pH 7.0, day 21, 40° C.",7.1 ± 0.3%
same,Purity (%) at day 21 (60° C.),"pH 7.0, day 21, 60° C.",0%
same,Purity(%) at day 0,"pH 8.0, day 0",97.4 ± 0.4%
same,Purity(%) at day 21 (5° C.),"pH 8.0, day 21, 5° C.",77.5 ± 0.3%
same,Purity(%) at day 21 (25° C.),"pH 8.0, day 21, 25° C.",39.8 ± 0.3%
same,Purity(%) at day 21 (40° C.),"pH 8.0, day 21, 40° C.",0%
same,Purity (%) at day 21 (60° C.),"pH 8.0, day 21, 60° C.",0%
